# Literature values, collected in patent US7517545B2, “Reduced-calorie fats containing behenic acid and process of making thereof” (Council of Scientific & Industrial Research, priority 1997, dated 2009).
# Conditions: feed study on rats
smiles,measurement,value
"CCCCCCCCCCCCCCCCCCCCCCOC(COC(=O)CCCCC)COC(=O)CCCCC [2-behenyl-1,3-dicaproyl glycerol]",absorption of the structured triglycerides vs other oils,significantly lower
same,excretion into feces vs other oils,higher than other oils
